For experiment [1], the target named is full-length MALT1 protein (Strep-MALT1(1-824)-His) (Homo sapiens (Human), UniProt Q9UDY8). In words: MALT1 Biochemical Protease Assay (Ac-LRSR-AMC substrate). Particulars: 10 nM FL MALT1, 200 μM Ac-LRSR-AMC, 4 h at RT; read-out: MALT1_Biochemical activity (Ac-LRSR-amc) IC50. How it is done:
The tetrapeptide LRSR is coupled to AMC (7-amino-4-methylcoumarin) and provides a quenched, fluorescent substrate for the MALT1 protease (SM Biochemicals). […] Test compound concentrations ranged from 30 μM to 0.5 nM using 11 dilution steps (1:3). Background signal was measured from control wells containing assay buffer without enzyme which functions as low control (LC). High control (HC) values were generated using the reaction with enzyme but no compound treatment. Compounds were pre-incubated with MALT1 enzyme for 50 minutes at RT. […] The reaction was subsequently incubated for 4 h at RT and fluorescence was measured.
LC=Median of the low control values
An estimate of the slope of the plot in terms of the Hill coefficient was also obtained. IC50 Calculation:
[formula] With • UB=upper bound • LB=lower bound Used in “Lexis Dose Response Curve Fitting” Version 1.0.

Experiment [2] deals with IL6 secretion by TMD8 ABC-DLBCL cells. In words: Human IL6 Mesoscale assay (TMD-8). Format: cell-based. The conditions noted are these: Homo sapiens, TMD8; TMD-8 cells, 24 h. How it is done: (§1) NFKB signaling regulates the secretion of multiple cytokines, including IL6 and IL10. Secretion of the cytokines IL6 and IL10 by TMD8 or OCI-LY3 ABC-DLBCL cells was measured using a mesoscale assay. Inhibition of NFKB signaling by MALT1 or BTK inhibitors results in a decrease of IL6/10 secretion.
(§2) TMD8 or OCI-LY3 cells were propagated in RPMI-1640 (Sigma Aldrich) supplemented with 10% fetal bovine serum (HyClone), 1 mM sodium pyruvate (Invitrogen), 2 mM L-glutamine (Sigma Aldrich) and 1% PenStrep (Sigma Aldrich). Cell passage number should not exceed 30. Cells should be kept between 0.5-2.5 million cells per mL during culturing and cells should be supplemented every 2-3 days with fresh 50 μM beta-mercaptoenthanol. No beta-mercaptoethanol was used during the mesoscale assay.
(§3) For the Mesoscale assay, 100,000 TMD8 or OCI-LY3 cells were seeded per well into black-colored 96-well plates with clear bottom (Corning #3904) and test compounds were added in 9 dilution steps (1:2) ranging from 15 μM to 58.6 nM (final DMSO concentration 0.3%). DMSO control wells were used to determine the maximum signal (High Control (HC)). Treatment with the BTK inhibitor RN486 in a dose range from 30 nM to 131 pM (9 dilutions of 1:2) served as a positive control for NFKB pathway inhibition and was used to determine the maximum inhibition (Low Control (LC)). Compounds and cells were incubated for 24 h at 37° C. and 5% CO2 (assay volume is 150 μL). After 24 h of incubation 50 μL of the supernatant was transferred to a MSD plate (V-Plex Proinflammation Panel 1 (human) kit, Mesoscale (MSD)) and incubated for 2 h with vigorous shaking (600 rpm) at room temperature. Following incubation, plates were washed 3× with PBS+0.05% Tween-20 and 25 μL detection antibody solution (IL6 & IL10 antibodies in diluent 3 (MSD)) was added per well followed by 2 h of incubation with vigorous shaking (600 rpm) at room temperature. After 3× washes with PBS+0.05% Tween-20, plates were incubated with 150 μL 2× Read Buffer T and read on SECTOR imager.

The test system of experiment [3] is IL10 secretion by TMD8 ABC-DLBCL cells. In words: Human IL10 Mesoscale assay (TMD-8). It counts as cell-based. The conditions noted are these: Homo sapiens, TMD8; TMD-8 cells, 24 h. As to the method:
as §1, §2, §3

Drawing on US10954214B2 (Janssen Pharmaceutica NV, priority 2016, dated 2021), this text covers IC50 for 23 compounds.

For orientation: IC50 means the concentration needed to halve the response being measured.

Sequence of full-length MALT1 protein (Strep-MALT1(1-824)-His) (Q9UDY8 whole entry): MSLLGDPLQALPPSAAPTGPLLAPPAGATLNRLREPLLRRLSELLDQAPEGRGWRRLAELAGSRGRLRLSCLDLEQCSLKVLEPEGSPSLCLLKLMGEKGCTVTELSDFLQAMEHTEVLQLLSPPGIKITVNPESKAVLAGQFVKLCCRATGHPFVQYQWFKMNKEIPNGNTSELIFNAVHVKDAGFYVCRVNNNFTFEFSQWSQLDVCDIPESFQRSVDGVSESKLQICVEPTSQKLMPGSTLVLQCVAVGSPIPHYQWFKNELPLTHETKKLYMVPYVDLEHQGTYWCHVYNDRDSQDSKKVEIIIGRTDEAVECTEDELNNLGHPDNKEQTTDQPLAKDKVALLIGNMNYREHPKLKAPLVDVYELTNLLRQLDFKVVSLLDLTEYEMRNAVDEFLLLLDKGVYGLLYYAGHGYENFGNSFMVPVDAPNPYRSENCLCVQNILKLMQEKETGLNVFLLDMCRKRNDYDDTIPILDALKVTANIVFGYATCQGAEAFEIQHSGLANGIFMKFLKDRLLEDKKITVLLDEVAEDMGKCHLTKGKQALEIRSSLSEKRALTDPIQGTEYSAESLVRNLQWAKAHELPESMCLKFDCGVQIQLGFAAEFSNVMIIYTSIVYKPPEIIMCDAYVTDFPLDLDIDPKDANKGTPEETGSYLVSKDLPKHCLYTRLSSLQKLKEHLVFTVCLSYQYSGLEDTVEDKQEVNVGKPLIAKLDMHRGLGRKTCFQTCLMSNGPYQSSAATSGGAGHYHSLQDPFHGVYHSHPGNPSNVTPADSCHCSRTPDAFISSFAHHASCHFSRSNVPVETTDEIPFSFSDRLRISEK

For `O=C(Nc1cnc(-n2nccn2)c(Cl)c1)c1cnn(-c2cnc([C@@H]3CCCO3)c3ccccc23)c1C(F)(F)F` (single isomer, unassigned) [Cpd 437, (*S)—N-(5-chloro-6-(2H-1,2,3-triazol-2-yl)pyridin-3-yl)-1-(1-(tetrahydrofuran-2-yl)isoquinolin-4-yl)-5-(trifluoromethyl)-1H-pyrazole-4-carboxamide], the IC50 in experiment [1] was 1780 nM; in experiment [2] it was 7590 nM; in experiment [3] it was 2510 nM.

As for `O=C1CO[C@@H](c2ncc(-n3ncc(C(=O)Nc4cnc(-n5nccn5)c(Cl)c4)c3C(F)(F)F)c3ccccc23)C1` (single isomer, unassigned) [Cpd 438, (*R)—N-(5-chloro-6-(2H-1,2,3-triazol-2-yl)pyridin-3-yl)-1-(1-(4-oxotetrahydrofuran-2-yl)isoquinolin-4-yl)-5-(trifluoromethyl)-1H-pyrazole-4-carboxamide], the IC50 in experiment [1] stood at 71 nM; in experiment [2], 6610 nM; in experiment [3], 2140 nM. For `O=C1CO[C@H](c2ncc(-n3ncc(C(=O)Nc4cnc(-n5nccn5)c(Cl)c4)c3C(F)(F)F)c3ccccc23)C1` (single isomer, unassigned) [Cpd 439, (*S)—N-(5-chloro-6-(2H-1,2,3-triazol-2-yl)pyridin-3-yl)-1-(1-(4-oxotetrahydrofuran-2-yl)isoquinolin-4-yl)-5-(trifluoromethyl)-1H-pyrazole-4-carboxamide] the same measures were 178 nM, 4270 nM and 1000 nM. With `O=C(Nc1ccc(-n2cccn2)c(Cl)c1)c1cnn(-c2cccc3ccncc23)c1C(F)(F)F` [Cpd 12, N-(3-chloro-4-(1H-pyrazol-1-yl)phenyl)-1-(isoquinolin-8-yl)-5-(trifluoromethyl)-1H-pyrazole-4-carboxamide], the half-inhibitory concentration (IC50) in experiment [1] stood at 4070 nM. Turning to `N#Cc1ncc(NC(=O)c2cnn(-c3cccc4ccncc34)c2C(F)(F)F)cc1C(F)(F)F` [Cpd 13, N-(6-cyano-5-(trifluoromethyl)pyridin-3-yl)-1-(isoquinolin-8-yl)-5-(trifluoromethyl)-1H-pyrazole-4-carboxamide], the half-inhibitory concentration (IC50) in experiment [1] came to 6030 nM.

As to `Nc1nccc(-c2ccc(NC(=O)c3cnn(-c4cccc5ccncc45)c3C(F)(F)F)cc2Cl)n1` [Cpd 14, N-(4-(2-aminopyrimidin-4-yl)-3-chlorophenyl)-1-(isoquinolin-8-yl)-5-(trifluoromethyl)-1H-pyrazole], the IC50 in experiment [1] was 4570 nM. Turning to `O=C(Nc1cnc(-n2cccn2)c(Cl)c1)c1cnn(-c2cccc3ccncc23)c1C(F)(F)F` [Cpd 15, N-(5-chloro-6-(1H-pyrazol-1-yl)pyridin-3-yl)-1-(isoquinolin-8-yl)-5-(trifluoromethyl)-1H-pyrazole-4-carboxamide], the 50% inhibitory concentration (IC50) in experiment [1] is 4170 nM. On the same count and under the same terms, the value for `O=C(Nc1cnc(N2CCCS2(=O)=O)c(Cl)c1)c1cnn(-c2cccc3ccncc23)c1C(F)(F)F` [Cpd 20, N-(5-chloro-6-(1,1-dioxidoisothiazolidin-2-yl)pyridin-3-yl)-1-(isoquinolin-8-yl)-5-(trifluoromethyl)-1H-pyrazole-4-carboxamide] was 9550 nM.

As for `Cc1ncn(-c2ccc(NC(=O)c3cnn(-c4cccc5ccncc45)c3C(F)(F)F)cc2Cl)n1` [Cpd 29, N-(3-chloro-4-(3-methyl-1H-1,2,4-triazol-1-yl)phenyl)-1-(isoquinolin-8-yl)-5-(trifluoromethyl)-1H-pyrazole-4-carboxamide], the IC50 in experiment [1] was determined as 2460 nM. Regarding `Cc1ncn(-c2ncc(NC(=O)c3cnn(-c4cccc5ccncc45)c3C(F)(F)F)cc2Cl)n1` [Cpd 30, N-(5-chloro-6-(3-methyl-1H-1,2,4-triazol-1-yl)pyridin-3-yl)-1-(isoquinolin-8-yl)-5-(trifluoromethyl)-1H-pyrazole-4-carboxamide], the IC50 in experiment [1] stood at 5010 nM.

For `Cc1ncnn1-c1ccc(NC(=O)c2cnn(-c3cccc4ccncc34)c2C(F)(F)F)cc1Cl` [Cpd 31, N-(3-chloro-4-(5-methyl-1H-1,2,4-triazol-1-yl)phenyl)-1-(isoquinolin-8-yl)-5-(trifluoromethyl)-1H-pyrazole-4-carboxamide], the concentration for half-maximal inhibition (IC50) in experiment [1] was found to be 8910 nM.

Consider `Cc1ccc2c(-n3ncc(C(=O)Nc4cnc(-n5nccn5)c(Cl)c4)c3C(F)(F)F)cccc2n1` [Cpd 37, N-(5-Chloro-6-(2H-1,2,3-triazol-2-yl)pyridin-3-yl)-1-(2-methylquinolin-5-yl)-5-(trifluoromethyl)-1H-pyrazole-4-carboxamide], for which, in experiment [1], the IC50 amounted to 1440 nM. In the case of `COC(=O)c1ncc(NC(=O)c2ncc(NC(=O)c3cnn(-c4cncc5ccccc45)c3C(F)(F)F)cc2Cl)cc1Cl` [Cpd 44, Methyl 3-chloro-5-(3-chloro-5-(1-(isoquinolin-4-yl)-5-(trifluoromethyl)-1H-pyrazole-4-carboxamido)picolinamido)picolinate], the concentration for half-maximal inhibition (IC50) in experiment [1] stood at 83 nM. The same measure, in the same setting: the value for `O=C(Nc1cnc(-n2nccn2)c(Cl)c1)c1cnn(-c2cccc3ncccc23)c1` [Cpd 60, N-(5-chloro-6-(2H-1,2,3-triazol-2-yl)pyridin-3-yl)-1-(quinolin-5-yl)-1H-pyrazole-4-carboxamide] was 11500 nM; that for `Cc1c(C(=O)Nc2cnc(-n3nccn3)c(Cl)c2)cnn1-c1ccnc2ccccc12` [Cpd 64, N-(5-chloro-6-(2H-1,2,3-triazol-2-yl)pyridin-3-yl)-5-methyl-1-(quinolin-4-yl)-1H-pyrazole-4-carboxamide] was 1150 nM. With `O=C(Nc1cnc(-n2nccn2)c(Cl)c1)c1cnn(-c2cc3ncccc3cc2F)c1C(F)(F)F` [Cpd 67, N-(5-Chloro-6-(2H-1,2,3-triazol-2-yl)pyridin-3-yl)-1-(6-fluoroquinolin-7-yl)-5-(trifluoromethyl)-1H-pyrazole-4-carboxamide], in experiment [1], the IC50 came out at 2040 nM. On the same count and under the same terms, as for `O=C(Nc1ccc(-n2nccn2)nc1)c1cnn(-c2cncc3ccccc23)c1C(F)(F)F` [Cpd 71, N-(6-(2H-1,2,3-triazol-2-yl)pyridin-3-yl)-1-(isoquinolin-4-yl)-5-(trifluoromethyl)-1H-pyrazole-4-carboxamide], the figure is 1580 nM; as for `O=C(Nc1cnc(-n2nccn2)c(Cl)c1)c1cnn(-c2cncc3ccccc23)c1` [Cpd 76, N-(5-chloro-6-(2H-1,2,3-triazol-2-yl)pyridin-3-yl)-1-(isoquinolin-4-yl)-1H-pyrazole-4-carboxamide], 8320 nM. Regarding `N#Cc1cc(NC(=O)c2cnn(-c3cncc4ccccc34)c2C(F)(F)F)ccn1` [Cpd 77, N-(2-cyanopyridin-4-yl)-1-(isoquinolin-4-yl)-5-(trifluoromethyl)-1H-pyrazole-4-carboxamide], the IC50 in experiment [1] came to 417 nM. On the same count and under the same terms, as for `CN1CCC(Oc2ncc(NC(=O)c3cnn(-c4cncc5ccccc45)c3C(F)(F)F)cc2C#N)CC1` [Cpd 80, N-(5-cyano-6-((1-methylpiperidin-4-yl)oxy)pyridin-3-yl)-1-(isoquinolin-4-yl)-5-(trifluoromethyl)-1H-pyrazole-4-carboxamide], the figure is 724 nM; as for `N#Cc1cc(NC(=O)c2cnn(-c3cncc4ccccc34)c2C(F)(F)F)cnc1C(=O)N1CCN(CCCCN)CC1` [Cpd 101, N-(6-(4-(4-aminobutyl)piperazine-1-carbonyl)-5-cyanopyridin-3-yl)-1-(isoquinolin-4-yl)-5-(trifluoromethyl)-1H-pyrazole-4-carboxamide], 2690 nM. Regarding `O=C(Nc1ccnc(C(F)(F)F)c1)c1cnn(-c2cccc3c(=O)[nH]ccc23)c1C(F)(F)F` [Cpd 158, 1-(1-oxo-1,2-dihydroisoquinolin-5-yl)-5-(trifluoromethyl)-N-(2-(trifluoromethyl)pyridin-4-yl)-1H-pyrazole-4-carboxamide], the IC50 is greater than 1510 nM in experiment [2] and 380 nM in experiment [3]. Consider “N-(3-chloro-4-(1H-1,2,3-triazol-1-yl)phenyl)-1-(isoquinolin-4-yl)-5-(trifluoromethyl)-1H-pyrazole-4-carboxamide [Cpd 18]”, for which, in experiment [1], the IC50 was determined as 2290 nM.
